We go through three compounds from paper PMC12529303, “A phase I study of AZD8186 in combination with docetaxel in patients with PTEN-mutated or PIK3CB-mutated advanced solid tumors” (ESMO Open, 2025).

The Cmax is the maximum level reached in the sampled fluid or tissue. The term Tmax denotes the time at which the peak concentration occurs.

In data set [1] the test system is PTEN-null and PI3Kβ-driven preclinical models of breast and prostate cancer. Further details: method as in PMID 32215185, PMID 25398829. The conditions noted are these: in vitro; cited from earlier work.
A short description of data set [2]: AZD8186 plasma pharmacokinetics (UPLC-MS/MS, noncompartmental). The conditions noted are these: for Cmin,ss / Cmax / Tmax / AUC(0-t): plasma; for Cmax / Tmax / AUC(0-t): human, oral, C2D1; for AUC(0-t): read-out: AUC0-6h. It counts as in vivo, human. On the procedure:
(§1) Plasma samples were collected at predefined time points based upon the dosing schedules for docetaxel and AZD8186. Cycle 1, day 1 (C1D1) pretreatment baseline measurements were collected for both drugs. For docetaxel, samples were collected as follows: C2D1, pretreatment, 30 min and 55 min after the start of the docetaxel infusion, and 2 h and 5 h after the end of the docetaxel infusion; C2D2, ∼24 h after the start of the docetaxel infusion. For AZD8186, samples were collected as follows: C2D1, pretreatment and 1 h, 3 h, and 6 h after dosing; C2D2, ∼24 h after dose and before the next AZD8186 dose. Starting from cycle 3, a day 1 pretreatment sample was collected at each scheduled visit.
Plasma concentrations of docetaxel were quantified using a validated liquid chromatography and tandem mass spectrometry.[36] The lower limit of quantitation for docetaxel was 0.5 ng/ml. AZD8186 plasma concentration was quantified using a validated ultraperformance liquid chromatography and tandem mass spectrometry method with a 5-2000 ng/ml dynamic range. Assays were carried out at the Sidney Kimmel Comprehensive Cancer Center Analytical Pharmacology Core Laboratory at Johns Hopkins University.
Statistical analysis for pharmacokinetic (PK) studies was carried out using Graph Pad Prism software version 9.4.1 (GraphPad Software, Inc., Boston, MA). PK parameters were evaluated statistically by Kruskal–Wallis test. Significance was determined at a level of P < 0.05. Between-group comparisons were conducted using the Wilcoxon signed rank test.

Data set [3] relates to xenograft mouse models. Further details: method as in PMID 32215185, PMID 25398829. The settings on record: cited from earlier work.
The test system of data set [4] is advanced solid tumors. On the set-up: method as in PMID 35247924. The settings on record: 60 mg b.i.d. and 120 mg b.i.d.; cited from earlier work.
Data set [5] can be described thus: clinical. The conditions noted are these: human, in vivo. The method, then:
as §1
Plasma concentrations of docetaxel were quantified using a validated liquid chromatography and tandem mass spectrometry.[36] The lower limit of quantitation for docetaxel was 0.5 ng/ml. AZD8186 plasma concentration was quantified using a validated ultraperformance liquid chromatography and tandem mass spectrometry method with a 5-2000 ng/ml dynamic range. […]
Statistical analysis for pharmacokinetic (PK) studies was carried out using Graph Pad Prism software version 9.4.1 (GraphPad Software, Inc., Boston, MA). PK parameters were evaluated statistically by Kruskal–Wallis test. Significance was determined at a level of P < 0.05. […]

Data set [6] deals with castration-resistant prostate cancer with PTEN loss. On the set-up: method as in PMID 28645941. The conditions noted are these: cited from earlier work.
[7] abbreviates: TAC-1B AZD8186 reduced: docetaxel 45 mg/m^2, AZD8186 30 mg, n=1.
Setting [8] is: TAC1+GF: docetaxel 75 mg/m^2, AZD8186 60 mg, n=3.
[9] abbreviates: TAC-1: docetaxel 75 mg/m^2, AZD8186 60 mg, n=1.
[10] abbreviates: TAC-1B: docetaxel 60 mg/m^2, AZD8186 60 mg, n=1.
Where [11] appears, read: TAC-2: docetaxel 75 mg/m^2, AZD8186 120 mg, n=7.

Like-named read-outs stand apart in the source and are kept apart here.

Regarding `C[C@@H](Nc1cc(F)cc(F)c1)c1cc(C(=O)N(C)C)cc2c(=O)cc(N3CCOCC3)oc12` [AZD8186], the “PI3K signaling and viability” value in data set [1] was “inhibited PI3K signaling and viability”. For the same compound, the “steady-state trough concentrations across dosing cohorts” value in data set [2] (Kruskal-Wallis) is on record as “not significantly different”. The “Cmin,ss” value in data set [2] (TAC1+GF: docetaxel 75 mg/m^2, AZD8186 60 mg, n=1) is 176.0 (1) ng/mL; in data set [2] (TAC-1: docetaxel 75 mg/m^2, AZD8186 60 mg, mean ± SD, n=3), 149.8 ± 77.2 (3) ng/mL; in data set [2] (TAC-1 AZD8186 reduced: docetaxel 60 mg/m^2, AZD8186 30 mg, n=1), 66.0 (1) ng/mL; in data set [2] (setting [7]) it was 130.0 (1) ng/mL; in data set [2] (TAC-1B: docetaxel 60 mg/m^2, AZD8186 60 mg, mean ± SD, n=3) it was 83.5 ± 55.1 (3) ng/mL; in data set [2] (TAC-2: docetaxel 75 mg/m^2, AZD8186 120 mg, mean ± SD, n=6), 76.8 ± 49.2 (6) ng/mL. Besides, the Cmax in data set [2] (TAC1+GF: docetaxel 75 mg/m^2, AZD8186 60 mg) stood at 166 ng/mL; in data set [2] (TAC-1: docetaxel 75 mg/m^2, AZD8186 60 mg), 464 ng/mL; in data set [2] (setting [7]), 253 ng/mL; in data set [2] (setting [10]) it was 285 ng/mL; in data set [2] (TAC-2: docetaxel 75 mg/m^2, AZD8186 120 mg) it was 532 ng/mL. The Tmax was 2.76 h in data set [2] (setting [8]); 3.87 h in data set [2] (setting [9]); 8.43 h in data set [2] (setting [7]); 4.75 h in data set [2] (setting [10]); 4.43 h in data set [2] (setting [11]). The AUC(0-t) turned out to be 224 ng·h/mL in data set [2] (setting [8]); 1110 ng·h/mL in data set [2] (setting [9]); 789 ng·h/mL in data set [2] (setting [7]); 808 ng·h/mL in data set [2] (setting [10]); 1800 ng·h/mL in data set [2] (setting [11]). Further, the “single-agent activity in vivo” value in data set [3] is on record as “limited single-agent activity”. For the same compound, in data set [4], the “tolerability and target inhibition in plasma” value was “tolerable with dose-dependent target inhibition in plasma”.

With `CC(=O)O[C@@]12CO[C@@H]1C[C@H](O)[C@@]1(C)C(=O)[C@H](O)C3=C(C)[C@@H](OC(=O)[C@H](O)[C@@H](NC(=O)OC(C)(C)C)c4ccccc4)C[C@@](O)([C@@H](OC(=O)c4ccccc4)[C@H]21)C3(C)C` [docetaxel], the Tmax in data set [5] was determined as 0.92 h.

Turning to `Cc1c(Cn2c(C)nc3c(C(=O)O)cc(N4CCOCC4)cc32)cccc1C(F)(F)F` [GSK2636771], the responses entry in data set [6] is “only anecdotal responses”.
